Measurements reported in patent US20240327364A1, “THERAPEUTIC TARGETING OF GPR68 TO INDUCE FERROPTOSIS” (University Of Maryland, Baltimore, priority 2023, published 2024).

How the values were obtained:
[1] = test system: REC-1; assay: Cell Titer-Glo viability, B-cell lymphoma; assay type: cell-based; conditions: 72 hours
Experimental: (§1) OGM2 kills wide variety of cancer cell types. Cell sensitivity can be classified in to Very Sensitive (LC50<2 μM), Sensitive (LC50=2 to 10 μM), Mildly Sensitive (LC50>10 μM), and Refractory (no killing at 10 μM). The listed established cell were incubated with OGM2 at 2 μM or 10 μM for 72 hours under standard cell culture conditions, and relative cell number was assessed using Cell Titer-Glo Luminescent Cell Viability Assay (Promega™) following the manufacturer's instructions. Luminescence was determined using a Cytation 5 reader and Gen5 software package (BioTek™).
Cancer cells, which are very sensitive to killing by OGM2 (LCs <2 μM), with reported mRNA expression of GPR68 and the related proton sensing receptor GPR4. LC50's (concentrations causing 50% lethality) were determined using CellTiter-Glo (Promega™, G7570). Cells were plated in 12-well plates (CELLTREAT Scientific Products, 229112) in 1 ml of DMEM with high glucose, GlutaMAX, HEPES, or RPMI 1640 with Penicillin-Streptomycin (ThermoFisher™, 10564029, 11875119 and 15140122) and 10% FBS. Cells were incubated overnight at 37° C. in 5% CO2. Then 1 mL of fresh media was added with DMSO, OGM, or positive control (Erastin; APExBIO Technology, LLC, B1524) and cells incubated for 3 days. On the third day, all media was removed, cells were rinsed with 1×PBS, PBS was removed, and 200 μL of 1× Passive Lysis Buffer (Promega™, E1941) was added to each well. […]. […] Plates were briefly spun down and read on a GloMax-Multi Detection System (Promega™).
The cells listed in the tables above were incubated with OGM2 at 2 μM or 10 μM for 72 hours under standard cell culture conditions, and relative cell number was assessed using Cell Titer-Glo Luminescent Cell Viability Assay (Promega™) following the manufacturer's instructions. Luminescence was determined using a Cytation 5 reader and Gen5 software package (BioTek™). […] The consensus normalized expression value (“nTPM”=normalize transcript per million) was calculated as the maximum nTPM value for each gene in the two data sources.

[2] = test system: GL261Luc; assay: Cell Titer-Glo viability, Glioblastoma; assay type: cell-based
Experimental: as §1
(§2) Cancer cells, which are very sensitive to killing by OGM2 (LCs <2 μM), with reported mRNA expression of GPR68 and the related proton sensing receptor GPR4. LC50's (concentrations causing 50% lethality) were determined using CellTiter-Glo (Promega™, G7570). Cells were plated in 12-well plates (CELLTREAT Scientific Products, 229112) in 1 ml of DMEM with high glucose, GlutaMAX, HEPES, or RPMI 1640 with Penicillin-Streptomycin (ThermoFisher™, 10564029, 11875119 and 15140122) and 10% FBS. Cells were incubated overnight at 37° C. in 5% CO2. Then 1 mL of fresh media was added with DMSO, OGM, or positive control (Erastin; APExBIO Technology, LLC, B1524) and cells incubated for 3 days. On the third day, all media was removed, cells were rinsed with 1×PBS, PBS was removed, and 200 μL of 1× Passive Lysis Buffer (Promega™, E1941) was added to each well. […]. Subsequently, 20 μL of lysate was added to 100 μL CellTiter-Glo™ reagent on a LUMITRAC 200 plate (Greiner™ bio-one, 82050-726). Plates were briefly spun down and read on a GloMax-Multi Detection System (Promega™).
(§3) The cells listed in the tables above were incubated with OGM2 at 2 μM or 10 μM for 72 hours under standard cell culture conditions, and relative cell number was assessed using Cell Titer-Glo Luminescent Cell Viability Assay (Promega™) following the manufacturer's instructions. Luminescence was determined using a Cytation 5 reader and Gen5 software package (BioTek™). RNA expression of GPR68 and GPR4 in the corresponding cancer cell lines are listed, according to the publicly available The Human Protein Atlas version 22.0 and Ensembl version 103.38 (see proteinatlas.org). The consensus normalized expression value (“nTPM”=normalize transcript per million) was calculated as the maximum nTPM value for each gene in the two data sources.

[3] = test system: U-87 MG; assay: Cell Titer-Glo viability, Glioblastoma; assay type: cell-based; conditions: 72 hours
Experimental: as §1, §2, §3

[4] = test system: KR-158-luc; assay: Cell Titer-Glo viability, Glioblastoma; assay type: cell-based
Experimental: as §1, §2, §3

[5] = test system: U-138 MG; assay: Cell Titer-Glo viability, Glioblastoma; assay type: cell-based; conditions: 72 hours
Experimental: as §1, §2, §3

[6] = test system: PANC02; assay: Clonogenicity (crystal violet); assay type: cell-based; conditions: 7 days
Experimental: In a third study, PANC02 pancreatic cells were plated at 400 cells per well in a 6-well plate and on the next day were treated with increasing concentrations of OGM2 for 7 days. The plate was fixed with formalin and stained with crystal violet.

[7] = molecular target: T1, TRKB (Homo sapiens, UniProt Q16620); assay: KinomeScan; assay type: binding; conditions: read-out: % Control
T1 construct: purchased DiscoveRx (Fremont, CA)

[8] = molecular target: T2, PRKG1 (Homo sapiens, UniProt Q13976); assay: KinomeScan; assay type: binding; conditions: read-out: % Control
T2 construct: purchased DiscoveRx (Fremont, CA)

[9] = molecular target: T3, GRK7 (Homo sapiens, UniProt Q8WTQ7); assay: KinomeScan; assay type: binding; conditions: read-out: % Control
T3 construct: purchased DiscoveRx (Fremont, CA)
T3 sequence (Q8WTQ7 whole entry): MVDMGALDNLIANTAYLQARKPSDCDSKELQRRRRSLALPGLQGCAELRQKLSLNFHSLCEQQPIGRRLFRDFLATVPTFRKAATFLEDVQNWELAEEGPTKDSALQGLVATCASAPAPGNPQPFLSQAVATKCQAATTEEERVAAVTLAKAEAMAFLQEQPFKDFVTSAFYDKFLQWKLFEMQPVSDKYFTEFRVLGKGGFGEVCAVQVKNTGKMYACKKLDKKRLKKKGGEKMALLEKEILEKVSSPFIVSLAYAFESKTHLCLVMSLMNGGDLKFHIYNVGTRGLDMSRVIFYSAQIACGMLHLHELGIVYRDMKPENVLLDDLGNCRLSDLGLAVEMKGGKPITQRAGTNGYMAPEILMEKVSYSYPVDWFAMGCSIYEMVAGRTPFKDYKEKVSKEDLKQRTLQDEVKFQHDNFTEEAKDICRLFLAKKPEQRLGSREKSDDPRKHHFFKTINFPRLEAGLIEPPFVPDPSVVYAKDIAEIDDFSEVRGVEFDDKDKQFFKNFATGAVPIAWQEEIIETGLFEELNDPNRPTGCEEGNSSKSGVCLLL

[10] = molecular target: T4, CXCR3 (Homo sapiens, UniProt P49682); assay: GPCR Profiler; assay type: cell-based
T4 construct: host or cells: Chem-1 cells with Gα15
T4 sequence (P49682 whole entry, species assumed): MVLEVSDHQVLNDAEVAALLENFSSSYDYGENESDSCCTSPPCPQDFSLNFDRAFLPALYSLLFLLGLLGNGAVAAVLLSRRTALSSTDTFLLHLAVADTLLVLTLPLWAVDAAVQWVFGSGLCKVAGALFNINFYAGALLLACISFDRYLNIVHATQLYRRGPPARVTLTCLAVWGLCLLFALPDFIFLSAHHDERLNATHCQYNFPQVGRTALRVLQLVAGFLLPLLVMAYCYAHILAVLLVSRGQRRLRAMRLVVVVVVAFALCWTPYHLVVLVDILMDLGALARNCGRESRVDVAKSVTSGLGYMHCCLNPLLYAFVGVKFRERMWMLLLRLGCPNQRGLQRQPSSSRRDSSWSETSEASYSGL

[11] = molecular target: T5, RET(V804M) (Homo sapiens, UniProt P07949, V804M); assay: KinomeScan; assay type: binding; conditions: read-out: % Control
T5 construct: purchased DiscoveRx (Fremont, CA)

[12] = molecular target: T6, ABL1(Y253F)-phosphorylated (Homo sapiens, UniProt P00519, Y253F); assay: KinomeScan; assay type: binding; conditions: read-out: % Control
T6 construct: purchased DiscoveRx

[13] = molecular target: T7, BLK (Homo sapiens, UniProt P51451); assay: KinomeScan; assay type: binding; conditions: read-out: % Control
T7 construct: purchased DiscoveRx (Fremont, CA)
T7 sequence (P51451 whole entry): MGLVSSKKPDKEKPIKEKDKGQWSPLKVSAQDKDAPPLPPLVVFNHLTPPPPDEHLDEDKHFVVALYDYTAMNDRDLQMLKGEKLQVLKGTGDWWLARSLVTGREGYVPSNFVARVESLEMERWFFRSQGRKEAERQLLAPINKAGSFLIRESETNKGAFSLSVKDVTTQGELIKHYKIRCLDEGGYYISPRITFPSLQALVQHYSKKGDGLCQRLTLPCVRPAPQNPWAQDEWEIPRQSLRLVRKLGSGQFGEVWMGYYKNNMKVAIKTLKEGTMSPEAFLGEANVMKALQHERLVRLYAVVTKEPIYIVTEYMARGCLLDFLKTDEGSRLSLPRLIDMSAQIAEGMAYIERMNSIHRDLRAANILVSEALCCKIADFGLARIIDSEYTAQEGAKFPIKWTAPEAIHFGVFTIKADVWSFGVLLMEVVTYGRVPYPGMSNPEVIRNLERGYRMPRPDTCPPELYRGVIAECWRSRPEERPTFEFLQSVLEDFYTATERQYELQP

[14] = molecular target: T8, A1 (Homo sapiens, UniProt P30542); assay: GPCR Profiler; assay type: cell-based
T8 construct: host or cells: Chem-1 cells with promiscuous Gα15
T8 sequence (P30542 whole entry): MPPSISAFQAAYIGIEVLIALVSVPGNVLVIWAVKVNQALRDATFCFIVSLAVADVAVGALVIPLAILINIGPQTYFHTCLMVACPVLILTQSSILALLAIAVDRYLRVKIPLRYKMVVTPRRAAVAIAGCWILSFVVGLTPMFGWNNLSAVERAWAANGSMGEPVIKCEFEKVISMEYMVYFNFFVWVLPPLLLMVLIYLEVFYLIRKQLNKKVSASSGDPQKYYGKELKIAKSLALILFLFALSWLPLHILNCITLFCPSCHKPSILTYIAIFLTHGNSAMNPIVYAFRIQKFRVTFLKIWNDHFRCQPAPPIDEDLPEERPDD

[15] = molecular target: T9, PDPK1 (Homo sapiens, UniProt O15530); assay: KinomeScan; assay type: binding; conditions: read-out: % Control
T9 construct: purchased DiscoveRx (Fremont, CA)
T9 sequence (O15530 whole entry): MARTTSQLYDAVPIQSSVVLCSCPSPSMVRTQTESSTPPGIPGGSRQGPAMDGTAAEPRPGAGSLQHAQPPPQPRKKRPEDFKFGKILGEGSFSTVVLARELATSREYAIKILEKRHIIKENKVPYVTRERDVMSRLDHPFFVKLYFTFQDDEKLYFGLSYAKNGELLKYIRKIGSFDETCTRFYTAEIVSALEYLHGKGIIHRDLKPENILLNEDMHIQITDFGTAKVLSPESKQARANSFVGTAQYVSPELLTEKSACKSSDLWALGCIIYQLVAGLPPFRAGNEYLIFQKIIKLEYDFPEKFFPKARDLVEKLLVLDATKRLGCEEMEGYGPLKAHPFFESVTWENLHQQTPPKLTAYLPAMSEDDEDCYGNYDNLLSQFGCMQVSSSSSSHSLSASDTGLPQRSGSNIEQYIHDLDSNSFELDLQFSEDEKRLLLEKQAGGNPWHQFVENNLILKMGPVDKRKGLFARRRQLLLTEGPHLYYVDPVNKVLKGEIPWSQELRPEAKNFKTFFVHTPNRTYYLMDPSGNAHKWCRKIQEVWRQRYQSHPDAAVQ

[16] = molecular target: T10, FLT1 (Homo sapiens, UniProt P17948); assay: KinomeScan; assay type: binding; conditions: read-out: % Control
T10 construct: purchased DiscoveRx (Fremont, CA)
T10 sequence (P17948 27-1338): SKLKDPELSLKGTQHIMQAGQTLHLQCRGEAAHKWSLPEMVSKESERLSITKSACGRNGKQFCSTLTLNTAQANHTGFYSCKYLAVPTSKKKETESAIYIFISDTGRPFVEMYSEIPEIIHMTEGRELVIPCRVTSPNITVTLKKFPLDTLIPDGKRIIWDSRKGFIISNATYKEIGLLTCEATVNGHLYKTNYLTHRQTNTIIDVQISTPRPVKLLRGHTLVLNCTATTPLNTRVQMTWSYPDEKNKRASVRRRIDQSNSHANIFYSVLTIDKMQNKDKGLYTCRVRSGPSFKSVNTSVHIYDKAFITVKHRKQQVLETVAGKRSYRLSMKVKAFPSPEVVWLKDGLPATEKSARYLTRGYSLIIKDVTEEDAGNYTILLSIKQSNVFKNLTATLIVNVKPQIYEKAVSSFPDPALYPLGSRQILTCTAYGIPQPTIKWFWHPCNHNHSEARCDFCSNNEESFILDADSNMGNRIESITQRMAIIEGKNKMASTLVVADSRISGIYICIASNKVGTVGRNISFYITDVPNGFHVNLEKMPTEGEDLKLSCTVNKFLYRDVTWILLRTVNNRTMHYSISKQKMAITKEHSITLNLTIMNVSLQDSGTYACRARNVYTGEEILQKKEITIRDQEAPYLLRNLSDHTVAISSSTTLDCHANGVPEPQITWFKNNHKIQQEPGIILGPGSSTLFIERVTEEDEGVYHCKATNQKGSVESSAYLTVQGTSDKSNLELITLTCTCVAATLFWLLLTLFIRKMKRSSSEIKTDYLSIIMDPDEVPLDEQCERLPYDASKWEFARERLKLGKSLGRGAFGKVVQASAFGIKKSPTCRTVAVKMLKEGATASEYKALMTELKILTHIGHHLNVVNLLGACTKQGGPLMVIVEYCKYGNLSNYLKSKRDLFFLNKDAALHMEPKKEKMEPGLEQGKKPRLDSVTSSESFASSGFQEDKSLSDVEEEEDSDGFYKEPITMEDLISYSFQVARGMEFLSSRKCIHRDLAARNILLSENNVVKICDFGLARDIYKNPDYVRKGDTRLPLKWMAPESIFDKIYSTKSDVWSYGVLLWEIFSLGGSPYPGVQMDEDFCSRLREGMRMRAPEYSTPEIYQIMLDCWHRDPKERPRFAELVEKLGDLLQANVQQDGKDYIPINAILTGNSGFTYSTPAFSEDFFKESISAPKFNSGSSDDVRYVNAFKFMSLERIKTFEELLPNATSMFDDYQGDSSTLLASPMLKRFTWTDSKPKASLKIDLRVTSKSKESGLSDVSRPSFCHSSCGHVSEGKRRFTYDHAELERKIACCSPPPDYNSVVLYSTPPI

[17] = molecular target: T11, ABL1(F317L)-nonphosphorylated (Homo sapiens, UniProt P00519, F317L); assay: KinomeScan; assay type: binding; conditions: read-out: % Control
T11 construct: purchased DiscoveRx

[18] = molecular target: T12, ABL1(H396P)-nonphosphorylated (Homo sapiens, UniProt P00519, H396P); assay: KinomeScan; assay type: binding; conditions: read-out: % Control
T12 construct: purchased DiscoveRx

[19] = molecular target: T13, CCR1 (Homo sapiens, UniProt P32246); assay: GPCR Profiler; assay type: cell-based
T13 construct: host or cells: Chem-1 cells with Gα15
T13 sequence (P32246 whole entry, species assumed): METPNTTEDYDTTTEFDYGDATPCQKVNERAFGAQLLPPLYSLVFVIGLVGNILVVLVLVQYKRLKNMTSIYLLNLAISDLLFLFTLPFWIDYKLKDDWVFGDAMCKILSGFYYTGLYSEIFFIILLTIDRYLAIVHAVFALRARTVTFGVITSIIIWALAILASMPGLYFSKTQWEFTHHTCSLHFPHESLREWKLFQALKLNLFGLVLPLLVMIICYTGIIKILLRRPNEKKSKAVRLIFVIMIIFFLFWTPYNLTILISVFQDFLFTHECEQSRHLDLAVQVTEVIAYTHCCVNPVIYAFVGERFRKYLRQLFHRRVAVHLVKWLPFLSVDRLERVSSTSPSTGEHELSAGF

[20] = molecular target: T14, JAK2(JH1domain-catalytic) (Homo sapiens, UniProt O60674); assay: KinomeScan; assay type: binding; conditions: read-out: % Control
T14 construct: JAK2(JH1domain-catalytic); purchased DiscoveRx (Fremont, CA)
T14 sequence (O60674 849-1124 limits assumed): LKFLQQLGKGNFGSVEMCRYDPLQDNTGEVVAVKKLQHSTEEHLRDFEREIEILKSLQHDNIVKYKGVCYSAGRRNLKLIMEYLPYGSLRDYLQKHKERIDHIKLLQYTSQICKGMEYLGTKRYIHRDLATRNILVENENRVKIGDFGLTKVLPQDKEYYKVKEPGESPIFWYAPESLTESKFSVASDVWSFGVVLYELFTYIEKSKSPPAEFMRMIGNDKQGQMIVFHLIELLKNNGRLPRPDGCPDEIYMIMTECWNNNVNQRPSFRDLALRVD

[21] = molecular target: T15, CAMK1D (Homo sapiens, UniProt Q8IU85); assay: KinomeScan; assay type: binding; conditions: read-out: % Control
T15 construct: purchased DiscoveRx (KinomeScan service)
T15 sequence (Q8IU85 whole entry): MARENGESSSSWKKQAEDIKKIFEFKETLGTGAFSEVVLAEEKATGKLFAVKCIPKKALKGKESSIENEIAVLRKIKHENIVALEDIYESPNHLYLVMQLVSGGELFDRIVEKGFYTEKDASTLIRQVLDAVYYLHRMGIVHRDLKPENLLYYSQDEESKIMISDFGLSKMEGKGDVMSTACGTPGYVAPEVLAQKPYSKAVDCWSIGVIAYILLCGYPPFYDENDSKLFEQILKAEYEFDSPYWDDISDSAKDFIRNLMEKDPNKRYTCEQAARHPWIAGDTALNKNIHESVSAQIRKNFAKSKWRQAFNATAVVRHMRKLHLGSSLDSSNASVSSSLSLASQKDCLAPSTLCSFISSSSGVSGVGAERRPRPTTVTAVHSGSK

With CCc1ccc2c(c1)C1(NN=C(c3ccccc3)S1)C(=O)N2 (stereo not drawn) [OGM2] the “% Survival 2 μM OGM” value [1] was 0.7%, the “% Survival 10 μM OGM” value [1] was 0.0% and the CC50 ([1]; Homo sapiens, Rec1, read-out: LC50 (the source's name)) was < 2 µM. For the same compound, the Class [2] was “Very Sensitive (Very Sensitive (LC50<2 μM))”, the “% Survival 2 μM OGM” value ([2]; 72 hours) was 1.8% and the “% Survival 10 μM OGM” value ([2]; 72 hours) was 0.1%. The CC50 ([2]; Mus musculus, GL261-Luc, 72 hours, read-out: LC50 (the source's name)) was < 2 µM, the “% Survival 2 μM OGM” value [3] was 21.3% and the “% Survival 10 μM OGM” value [3] was 10.1%. For the same compound, the CC50 ([3]; Homo sapiens, U-87 MG, read-out: LC50 (the source's name)) was < 2 µM, the Class [4] was “Very Sensitive (Very Sensitive (LC50<2 μM))” and the “% Survival 2 μM OGM” value ([4]; 72 hours) was 11.4%. The “% Survival 10 μM OGM” value ([4]; 72 hours) was 4.7%, the CC50 ([4]; Mus musculus, 72 hours, read-out: LC50 (the source's name)) was < 2 µM and the “% Survival 2 μM OGM” value [5] was 40.3%. The “% Survival 10 μM OGM” value [5] was 35.0%, the CC50 ([5]; Homo sapiens, U138-MG, read-out: LC50 (the source's name)) was < 2 µM and the clonogenicity [6] was “reduced the clonogenicity of pancreatic cancer cells”.
For CCc1ccc2c(c1)C1(NN=C(c3cccc4ccccc34)S1)C(=O)N2 (stereo not drawn) [OGM1, 5-ethyl-5′-naphthalen-1-ylspiro[1H-indole-3,2′-3H-1,3,4-thiadiazole]-2-one], the remaining binding at 10 µM [7] was 51%, the remaining binding at 10 µM [8] was 100% and the remaining binding at 10 µM [9] was 73%. The Antagonism ([10]; 10 uM) was −2, the Agonism ([10]; 12.5 uM) was 0.1 and the remaining binding at 10 µM [11] was 100%. It also gave a remaining binding at 10 µM [12] of 80%, a remaining binding at 10 µM [13] of 97% and an Antagonism ([14]; 10 uM) of −13.9. It also gave an Agonism ([14]; 12.5 uM) of 0.1, a remaining binding at 10 µM [15] of 100% and a remaining binding at 10 µM [16] of 100%. For the same compound, the remaining binding at 10 µM [17] was 96%, the remaining binding at 10 µM [18] was 88% and the Antagonism ([19]; 10 uM) was −0.6. It also gave an Agonism ([19]; 12.5 uM) of −0.3, a remaining binding at 10 µM [20] of 100% and a remaining binding at 10 µM [21] of 68%.
